Here are results for two compounds from patent publication US9422312B2, “Azabenzimidazole derivatives” (Boehringer Ingelheim International GmbH, priority 2014, dated 2016).

The target of the assay is Activated AMPK complex 1 (containing alpha1beta1gamma1) (Homo sapiens (Human), UniProt Q13131+Q9Y478). Description: in vitro AMPK activation assay (ADP-Glo Kinase Assay). The class given is biochemical. Conditions: 1 μM peptide substrate, 30 μM ATP, 60 min, room temperature, luminescence. An excerpt: Activated AMPK complex 1 (containing alpha1beta1gamma1) was obtained from baculovirus expression system. The gene encoding AMPK alpha1 was cloned into the pACG2T vector (BD Biosciences) to obtain a N-terminal Glutathion S transferase (GST)-fusion protein. The genes encoding AMPK beta 1 and gamma1 were cloned into the p2Bac dual multiple cloning site vector (Invitrogen) with beta1 under the control of the p10 promoter and gamma1 under the control of the PH promoter. The transfer vectors containing AMPK were co-transfected individually with AcPNV BacMagic-3 DNA (EMD Millipore) in Sf9 cells and the recombinant baculoviruses were harvested after 5 days, followed by 3 rounds of amplification of the virus stock in Sf9 cells. AMPK (alpha1beta1gamma1) was expressed in High Five 5 cells by co-infection of recombinant alpha1 virus and recombinant beta1/gamma1 virus for 72 h at 27° C. Cells were harvested by centrifugation and lysed by 3 freeze/thaw cycles in PBS with 10% glycerol and protease inhibitor cocktail (Roche). After centrifugation AMPK a1b1g1 in the supernatant was captured by immobilized glutathione (GE Healthcare), impurities were washed away with PBS and AMPK alpha1beta1gamma1 was eluted with PBS containing 20 mM reduced gluthathione. The protein buffer was then exchanged to PBS with 10% glycerol and protein concentration was determined by UV absorbance.
The white 384-well Optiplates (cat. no. 6007299) were purchased from PerkinElmer. The V9101 ADP-Glo Kinase Assay and ultra pure ATP (V915A) was purchased from Promega. The substrate for AMPK (NH2-HMRSAMSGLHLVKRR_CONH2) was purchased from Upstate (12-355).
Compounds were tested in either serial dilutions or single dose concentrations. The serial compound dilutions were prepared in 100% DMSO automatically. The final DMSO concentration in the assay was 0.1%.
The Compound Stock Solutions were 10 mM in 100% DMSO. The compounds were solubilised at room temperature.
In the 384-well plates 1.25 ul of test compound in assay buffer was mixed with 1.25 ul of AMPK and 1.25 μl of the peptide (final concentration of 1 μM) and 1.25 μl of ATP (final concentration of 30 μM), both dissolved in assay buffer. This step was followed by an incubation time of 60 min. Then 5 μl of ADP Glo Reagent was added. This was followed by 40 min of incubation. Then 10 μl of Kinase Detection Reagent was admixed. The plates were sealed and after an incubation period of 30 min, the luminescence signal was measured in an Envision reader. All incubation steps were accomplished at room temperature.
Each assay microtiter plate contained wells with vehicle controls instead of compound (0.1% DMSO in water) as reference for the low signal (100% CTL, low signal), and wells with serial dilutions of AMP (final 30 μM) as reference for high signals.
The luminescence signal generated was proportional to the ADP concentration produced and was correlated with AMPK activity. The analysis of the data was performed by the calculation of the percentage of ATP consumption of AMPK in the presence of the test compound compared to the consumption of ATP in the presence of AMPK without compound. (RLU(sample)/RLU(low control))*100[RLU=relative luminescence units]
An activator of the AMPK enzyme gave values above 100% CTL.
EC50 values based on dose response curves are calculated with the XIFIT software using the 4 Parameter Logistic Model or Sigmoidal Dose-Response Model.
(ADP-Glo first removes unused ATP, then detects ADP through luciferase.)

Chain of Activated AMPK complex 1 (containing alpha1beta1gamma1) (Q13131 whole entry, the tested form may be a part): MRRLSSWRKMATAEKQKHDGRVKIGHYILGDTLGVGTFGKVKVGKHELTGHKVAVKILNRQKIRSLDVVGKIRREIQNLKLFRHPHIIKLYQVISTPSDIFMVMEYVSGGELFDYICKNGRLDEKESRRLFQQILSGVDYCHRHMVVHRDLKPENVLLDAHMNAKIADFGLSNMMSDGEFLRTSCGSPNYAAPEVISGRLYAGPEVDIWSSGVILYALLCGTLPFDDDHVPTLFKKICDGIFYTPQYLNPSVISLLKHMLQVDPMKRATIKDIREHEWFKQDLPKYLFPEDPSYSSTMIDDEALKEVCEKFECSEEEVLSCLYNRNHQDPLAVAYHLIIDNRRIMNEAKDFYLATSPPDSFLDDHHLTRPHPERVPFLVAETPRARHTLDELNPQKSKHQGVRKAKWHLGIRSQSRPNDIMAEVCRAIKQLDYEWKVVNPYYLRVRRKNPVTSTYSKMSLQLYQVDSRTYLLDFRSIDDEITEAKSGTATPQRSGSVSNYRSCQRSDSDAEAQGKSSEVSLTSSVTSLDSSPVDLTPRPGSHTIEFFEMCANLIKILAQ
Chain of Activated AMPK complex 1 (containing alpha1beta1gamma1) (Q9Y478 whole entry, the tested form may be a part): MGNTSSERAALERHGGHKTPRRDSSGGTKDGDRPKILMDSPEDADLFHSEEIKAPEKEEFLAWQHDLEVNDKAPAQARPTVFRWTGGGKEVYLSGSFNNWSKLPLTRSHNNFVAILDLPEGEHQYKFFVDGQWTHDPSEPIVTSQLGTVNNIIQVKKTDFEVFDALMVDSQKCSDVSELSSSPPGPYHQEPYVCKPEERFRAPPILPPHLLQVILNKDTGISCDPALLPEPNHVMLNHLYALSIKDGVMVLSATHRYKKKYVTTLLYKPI
Chain of Activated AMPK complex 1 (containing alpha1beta1gamma1) (P54619 whole entry partner, the tested form may be a part): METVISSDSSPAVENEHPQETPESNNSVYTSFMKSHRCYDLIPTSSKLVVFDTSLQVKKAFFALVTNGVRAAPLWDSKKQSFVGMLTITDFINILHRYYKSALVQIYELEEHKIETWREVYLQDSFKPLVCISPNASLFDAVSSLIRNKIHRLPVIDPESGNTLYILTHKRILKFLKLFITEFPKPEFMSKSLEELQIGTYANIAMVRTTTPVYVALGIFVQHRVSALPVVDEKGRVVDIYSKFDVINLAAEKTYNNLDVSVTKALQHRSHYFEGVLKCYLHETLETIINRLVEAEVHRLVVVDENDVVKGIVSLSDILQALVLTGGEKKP

The term EC50 denotes the concentration giving half of the maximal effect. The low end stands for an effect from little substance, the high end for a need for much substance. `CN(C)S(C)(=O)=Nc1ccc(-c2ccc(-c3nc4[nH]c(O[C@@H]5CO[C@H]6[C@@H]5OC[C@H]6O)nc4cc3Cl)cc2)nc1` (stereo partly drawn) [Example 10, N′-{6-[4-(2-{[(3R,3aR,6R,6aR)-6-Hydroxy-hexahydrofuro[3,2-b]furan-3-yl]oxy}-6-chloro-3H-imidazo[4,5-b]pyridin-5-yl)phenyl]pyridin-3-yl}-N,N-dimethyl-methanesulfonimidamide] displayed a 50% effective concentration (EC50) of 17 nM.
Under `CN(C)S(C)(=O)=NCc1ccc(-c2ccc(-c3nc4[nH]c(O[C@@H]5CO[C@H]6[C@@H]5OC[C@H]6O)nc4cc3Cl)cc2)cc1` (stereo partly drawn) [Example 20, N′—({4-[4-(2-{[(3R,3aR,6R,6aR)-6-Hydroxy-hexahydrofuro[3,2-b]furan-3-yl]oxy}-6-chloro-3H-imidazo[4,5-b]pyridin-5-yl)phenyl]phenyl}methyl)-N,N-dimethyl-methanesulfonimidamide] stands 82 nM.
